Values quoted from earlier work as cited in patent publication US7709454B2, “Methods and compositions for inhibiting tumorigenesis” (New York University, priority 1997, dated 2010).

How the values were obtained:
[1] = test system: MMTV-N-RAS^N transgenic Mice/lymphoid and mammary tumors; details: 40 mg/kg/d; cited from earlier work
[2] = cell type not given; cited from earlier work
[3] = test system: MMTV-TGFa/neu transgenic Mice/mammary tumors; details: 40 mg/kg/d; cited from earlier work
[4] = test system: MMTV-v-H-RAS transgenic mice/Mammary, salivary Carcinoma; details: cited from earlier work

CC[C@H](C)[C@@H](CO[C@@H](Cc1ccccc1)C(=O)N[C@@H](CCS(C)(=O)=O)C(=O)OC(C)C)NC[C@@H](N)CS [L-744,832]
tumor mean growth rate in the presence of the Ftase inhibitor [1]: −0.7 vs 28.3 mm3/day
IC50 [2]: 1 to 10 µM
tumor mean growth rate in the presence of the Ftase inhibitor [3]: −7.4 vs 19 mm3/day
tumor mean growth rate in the presence of the Ftase inhibitor ([4]; 10-40 mg/kg/d): −5.4 vs 16.7 mm3/day
tumor response ([4]; mammary and salivary carcinomas in MMTV-v-Ha-Ras mice): induced regression
